According to patent publication US11001802B2, “Surface of a vessel with polystyrene, nitrogen, oxygen and a static sessile contact angle for attachment and cultivation of cells” (Nunc A/S, priority 2008, dated 2021):

How the values were obtained:
HEK293 cells [1] = assay: HEK293 cell attachment, number of viable cells by LDH activity (Example 19); assay type: cell-based, human; details: Surface 4 and CellBIND surface, 2.0 and 5.0 μM
Description: Human embryonic kidney cells 293 (HEK293, ECACC no. 85120602) were maintained in Eagle's Minimum Essential Medium (EMEM; Lonza, Verviers, Belgium) containing 10% fetal bovine serum (FBS; Lonza). The cells were adapted to Pro293a-CDM medium (Lonza), a chemically defined, serum-free medium optimized for cultivation of adherent HEK293, by gradually and over several passages using the sequential ratios of 3:1, 1:1, 1:3, 1:7, and finally 0:1 of serum-supplemented EMEM and Pro293a-CDM medium. For maintenance and adaptation, HEK293 cells were seeded at 2.0×10^4 cells/cm^2 in 75-cm^2 flasks with Nunclon Delta™ surface (Thermo Fisher Scientific, Roskilde, Denmark) and passaged at 70-80%/confluence using Trypsin/EDTA for dissociation.
Another 100 μl of Pro293a-CDM medium with HEK293 cells was added to the wells (4.0×10^4 cells/cm^2). […]
The number of viable cells in the wells was then determined using a lactate dehydrogenase (LDH) activity kit from Roche, Switzerland. […] The reaction was stopped by adding 50 μl of 1.0 M HCl, and the absorbance at 490 nm was measured in a microplate reader (Genios Pro; Tecan, Austria). The number of cells was calculated using the A490 values from these samples and from standards containing LDH from a known number of cells. […]

HEK293 cells [2] = assay: HEK293 attachment and growth, culture confluence by IncuCyte Plus (Examples 20, 21); assay type: cell-based, human
Experimental: HEK293 cells were maintained in EMEM (Lonza) containing 10% FBS (Lonza). Cells were passaged at 70-80% confluence using Trypsin/EDTA for dissociation, and seeded at c 2.0×10^4 cells/cm^2 in 75-cm^2 flasks with Nunclon Delta™ surface (Thermo Fisher Scientific, Roskilde, Denmark).
EMEM (500 μl) supplemented with 10% FBS containing 1.0, 5.0, 10, 15 or 20 μM Y-27632 (Sigma Chemical Co.), or 0.4, 1.2, 1.6, 2.4 or 2.8 μM H-1152 (Calbiochem, EMD Chemicals Inc., Darmstadt, Germany) was dispensed in Multidish 24-well plates with either Surface 4 or a non-treated (but gamma irradiated; 25 kGy) polystyrene surface. Another 500 μl of EMEM supplemented with 10% FBS and containing HEK293 cells were added to the wells (2.0×10^4 cells/cm^2). The cultures were placed in an IncuCyte™ Plus (Essen Instruments, Michigan, USA) and incubated at 37° C. in a humidified atmosphere of 5% CO2 in air. The IncuCyte™ Plus is an automated imaging platform, configured to fit inside a CO2 incubator, and designed to provide kinetic, non-invasive live cell imaging by acquiring phase contrast images of the cells at user-defined times and locations within the cultures. The primary metric of the instrument is culture confluence, that is, the fraction of the surface that is covered by cells. The HEK293 cells were incubated for 72 hours without manipulations, and images were collected every two hours at 9 positions in triplicate cultures. Culture confluence was determined using the IncuCyte™ Plus software (v. 3.4.1.25966).
EMEM (1.0 ml) supplemented with 10% FBS containing 0.4, 0.8, 1.2, 1.6, 2.0, 2.4 or 2.8 μM H-1152 was dispensed in Multidish 12-well plates with Surface 4. Another 1.0 ml of EMEM supplemented with […] and containing HEK293 cells were added to the wells (4.0×10^4 cells/cm^2). The cultures were placed in an IncuCyte™ Plus, and incubated at 37° C. in a humidified atmosphere of 5% CO2 in air for 42 hours (images were collected every 6 hours). One ml of culture medium was then removed by pipetting, and 1.0 ml EMEM supplemented with 10% FBS containing 0.2, 0.4, 0.6, 0.8, 1.0, 1.2 and 1.4 μM H-1152 was added. The cultures were placed in the IncuCyte™ Plus again, and images were collected every hour over the following 25 hours. Images were collected at 9 positions in triplicate cultures, and culture confluence was determined using the IncuCyte™ Plus software. Images from the IncuCyte™ Plus collected at specific positions in HEK293 cell cultures grown in the absence or presence of H-1152 (0.6 μM) was retrieved and presented as phase-contrast micrographs for the comparison of HEK293 culture morphology at the following time points: start of incubation (0 hours), just before medium change (42 hours), 1 hour after the medium change (43 hours), and, finally, after 52 hours of incubation.

C[C@@H](N)[C@H]1CC[C@H](C(=O)Nc2ccncc2)CC1 [Surface Y-27632, Y-27632]
attachment of HEK293 cells (HEK293 cells [1]; EMEM with 10% FBS): enhanced attachment | attachment of HEK293 cells (HEK293 cells [1]; Pro293a-CDM medium): enhanced attachment | attachment and growth of HEK293 cells (HEK293 cells [2]; Surface 4, increasing concentration): enhances attachment and growth | growth and attachment of HEK293 cells (HEK293 cells [2]; non-treated polystyrene surface, 10 μM Y-27632, 0.6-1.2 μM H-1152): slightly enhanced
